Data published in ChEMBL document CHEMBL4431308, “Structure and Configuration of Phosphoeleganin, a Protein Tyrosine Phosphatase 1B Inhibitor from the Mediterranean Ascidian Sidnyum elegans” (J Nat Prod, 2016).
pIC50: −log10 of the molar value. Calls of active or inactive are those of the source. No cut-off for these calls is given here.

Tests used:
MCF7 = experiment: Cytotoxicity against human MCF7 cells assessed as reduction in cell viability after 24 hrs by MTT assay; format: cell-based; details: MCF7, 24 h
[1] = molecular target: Dual specificity tyrosine-phosphorylation-regulated kinase 1A (Homo sapiens) (UniProt Q13627); experiment: Inhibition of GST-fused human recombinant DYRK1A expressed in Escherichia coli using woodtide as substrate after 30 mins in presence of [gamma-33P]ATP by liquid scintillation counting
HaCaT = experiment: Cytotoxicity against human HaCaT cells assessed as reduction in cell viability after 24 hrs by MTT assay; format: cell-based
[2] = molecular target: T1, Tyrosine-protein phosphatase non-receptor type 1 (Homo sapiens, UniProt P18031); experiment: Inhibition of human recombinant PTP1B catalytic domain expressed in Escherichia coli strain BL21(DE3) using […] as substrate
T1 sequence (P18031 whole entry): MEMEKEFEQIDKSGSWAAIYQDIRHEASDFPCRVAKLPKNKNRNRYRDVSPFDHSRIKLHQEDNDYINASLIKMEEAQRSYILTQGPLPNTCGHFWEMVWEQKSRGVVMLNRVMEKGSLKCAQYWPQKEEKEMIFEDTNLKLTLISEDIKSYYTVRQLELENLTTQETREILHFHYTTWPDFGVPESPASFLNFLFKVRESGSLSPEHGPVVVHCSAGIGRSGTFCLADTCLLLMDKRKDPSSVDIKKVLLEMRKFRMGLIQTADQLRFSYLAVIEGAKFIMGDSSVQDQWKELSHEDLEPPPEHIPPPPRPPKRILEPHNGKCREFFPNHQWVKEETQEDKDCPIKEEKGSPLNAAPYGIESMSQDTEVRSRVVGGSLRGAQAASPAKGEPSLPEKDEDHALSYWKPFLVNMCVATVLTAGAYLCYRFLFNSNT

DU-145 = experiment: Cytotoxicity against human DU145 cells assessed as reduction in cell viability after 24 hrs by MTT assay; format: cell-based; details: DU-145, 24 h

CCCCCCCCCCCCCC[C@@H](OP(=O)(O)O)[C@@H](O)CC[C@@H](O)[C@@H](O)CC[C@@H](O)CCCCCCC(=O)NCC(=O)O
pIC50 (MCF7): < 5.00 | inhibition [1]: inactive | pIC50 (HaCaT): < 5.00 | pIC50 [2]: 4.96 | pIC50 (DU-145): < 5.00

CCCCCCCCCCCCCC[C@@H](OP(=O)(O)O)[C@@H](O)CCCO
pIC50 (MCF7): < 5.00 | inhibition [1]: inactive | pIC50 (HaCaT): < 5.00 | pIC50 [2]: 4.62 | pIC50 (DU-145): < 5.00

O=C(O)CNC(=O)CCCCCC[C@H](O)CCCO
pIC50 (MCF7): < 5.00 | inhibition [1]: inactive | pIC50 (HaCaT): < 5.00 | pIC50 [2]: 4.55 | pIC50 (DU-145): < 5.00
